Experimental data taken from PMC8803738, “Impact of the mouse model and molar amount of injected ligand on the tissue distribution profile of PSMA radioligands” (European Journal of Nuclear Medicine and Molecular Imaging, 2021).

System: PC-3 PIP/flu tumor-bearing mice
Test: Biodistribution in PC-3 PIP/flu tumor-bearing mice
Assay type: in vivo, mouse
Conditions: for AUCTu(0→48 h)-to-AUCKi(0→48 h) ratio: PC-3 PIP model (female mice); for AUCTu(0→48 h)-to-AUCKi(0→48 h) ratio / AUC0→48h, Kidneys / AUC0→48h, PC-3 PIP tumor: average ± SE, non-decay-corrected
Experimental: Male BALB/c nude mice were subcutaneously inoculated on the right shoulder with LNCaP tumor cells (5 × 10^6 cells in PBS mixed with Matrigel (20 mg/mL, BD Biosciences) at a ratio of 3 to 1 (v/v) to a total volume of 200 μL per mouse). Biodistribution and SPECT/CT imaging studies with both tumor xenograft models were performed when the tumors reached a volume of 100–300 mm^3.
[^177Lu]Lu-Ibu-DAB-PSMA (5 MBq, 100 µL) and [^177Lu]Lu-PSMA-617 (5 MBq, 100 µL) were diluted in saline containing 0.05% bovine serum albumin (BSA) to prevent adherence of the radioligands to the syringe. The radioligands were intravenously injected at a ligand amount of 0.05 nmol or 1.0 nmol per mouse. The number of mice per setting was commonly n = 3 and, in case of inconclusive results, additional mice up to a total of n = 6 were included. The mice were sacrificed at 4 h, 24 h, or 48 h post injection (p.i.) and selected tissues and organs were collected, weighed, and counted in a γ-counter (Supplementary Material). The data sets were analyzed for significance using a one-way ANOVA with Sidak’s multiple comparison post-test using the GraphPad Prism software (version 8). A p value of < 0.05 was considered statistically significant. Tumor-to-kidney and tumor-to-blood ratios were calculated for all investigated timepoints after injection of each radioligand.
Time-activity curves over the first 48 h after injection of the radioligands were determined for the PC-3 PIP tumor, the LNCaP tumor, and the kidneys of the corresponding xenograft model based on non-decay-corrected time-dependent biodistribution data obtained at 4 h, 24 h, and 48 h p.i. This allowed calculating the areas under the curve (AUC0→48 h) using the GraphPad Prism software (version 8) (Supplementary Material). The tumor-to-kidney AUC0→48 h ratios were calculated for both xenograft models.
3. Biodistribution studies
Purpose: The impact of the tumor mouse model and the injected ligand amount on the biodistribution of [177Lu]Lu-Ibu-DAB-PSMA and [177Lu]Lu-PSMA-617 was investigated.
Methods: The biodistribution studies were conducted with either PC-3 PIP/flu or LNCaP tumor-bearing mice injected with either 0.05 nmol or 1.0 nmol of radioligand per mouse, whereas the applied activity was kept constant for each setting. The results were decay-corrected and the values indicated as average ± SD obtained from each gr oup of mice (n = 3−6) and listed as percentage of injected activity per gra m tissue [% IA/g].
Results: The results are listed below (Table S1–S4) and described and discussed in the main article.
Table S1 Decay -corrected biodistribution data of [177Lu]Lu-Ibu-DAB-PSMA in PC-3 PIP/flu tumor-bearing mice injected with either 0. 05 nmol or 1.0 nmol per mouse. The values are indicated as average ± SD obtained from each group of mice (n = 3−6) and listed as percentage of injected activity per gram […]
Dissection time 4 h p.i. 24 h p.i. 48 h p.i. […]
a Data obtained with 1.0 nmol [177Lu]Lu-Ibu-DAB-PSMA were reproduced from Deberle et al. […]
radioligands in order to be able to judge the changes in activity uptake in the tumor and kidney s as a consequence of the tumor model and the injected amount of ligand, respectively.
Methods: T he time-activity curves over the first 48 h after injection were determined for the PC-3 PIP tumor, the LNCaP tumor as well as for the kidneys of each tumor mouse model based on non-decay - corrected time-dependent biodistribution data. For these calculations, the radioligand uptake in the tumors and the kidney s at t = 0 h p.i. was set to 0% IA/g.

[1] = PC-3 PIP model, 4 h p.i., 0.05 nmol
[2] = PC-3 PIP model, 24 h p.i., 0.05 nmol
[3] = PC-3 PIP model, 48 h p.i., 0.05 nmol

## CC(C)Cc1ccc(C(C)C(=O)NC(CCN)C(=O)NCCCCC(NC(=O)CN2CCN(CC(=O)O)CCN(CC(=O)O)CCN(CC(=O)O)CC2)C(=O)NCC2CCC(C(=O)NC(Cc3ccc4ccccc4c3)C(=O)NCCCCC(NC(=O)NC(CCC(=O)O)C(=O)O)C(=O)O)CC2)cc1 (centres unmarked) [[^177Lu]Lu-Ibu-DAB-PSMA, metal not drawn]
0.05 nmol vs 1.0 nmol, 24 h and 48 h p.i.
  PC-3 PIP tumor uptake, low vs high ligand amount: 1.5–1.6 fold
0.05 nmol
  AUCTu(0→48 h)-to-AUCKi(0→48 h) ratio: 3.2 ± 0.5
1.0 nmol
  AUCTu(0→48 h)-to-AUCKi(0→48 h) ratio: 5.6 ± 0.7
PC-3 PIP model, 0.05 nmol
  AUC0→48h, Kidneys: 945 ± 97 % IA/g*h
  AUC0→48h, PC-3 PIP tumor: 3027 ± 206 % IA/g*h
PC-3 PIP model, 1.0 nmol vs 0.05 nmol
  Increase of tumor-to-kidney AUC0→48 h ratio for high vs low molar amount of injected ligand: 1.8 fold
PC-3 PIP model, 1.0 nmol
  AUC0→48h, Kidneys: 388 ± 23 % IA/g*h
  AUC0→48h, PC-3 PIP tumor: 2166 ± 153 % IA/g*h
[1]
  Tissue distribution, Blood: 1.3 ± 0.3 % IA/g
  Tissue distribution, Bone: 0.29 ± 0.06 % IA/g
  Tissue distribution, Heart: 0.54 ± 0.12 % IA/g
  Tissue distribution, Intestines: 0.29 ± 0.05 % IA/g
  Tissue distribution, Kidneys: 69 ± 10 % IA/g
  Tissue distribution, Liver: 1.1 ± 0.1 % IA/g
  Tissue distribution, Lung: 1.3 ± 0.3 % IA/g
  Tissue distribution, Muscle: 0.22 ± 0.06 % IA/g
  Tissue distribution, PC-3 PIP tumor: 81 ± 4 % IA/g
  Tissue distribution, PC-3 flu tumor: 0.67 ± 0.10 % IA/g
  Tissue distribution, Salivary glands: 0.69 ± 0.18 % IA/g
  Tissue distribution, Spleen: 1.9 ± 0.4 % IA/g
  Tissue distribution, Stomach: 0.33 ± 0.09 % IA/g
  Tumor-to-blood ratio: 65 ± 20
  Tumor-to-kidney ratio: 1.2 ± 0.2
  Tumor-to-liver ratio: 74 ± 8
[2]
  Tissue distribution, Blood: 0.23 ± 0.03 % IA/g
  Tissue distribution, Bone: 0.13 ± 0.04 % IA/g
  Tissue distribution, Heart: 0.15 ± 0.02 % IA/g
  Tissue distribution, Intestines: 0.11 ± 0.03 % IA/g
  Tissue distribution, Kidneys: 5.5 ± 1.0 % IA/g
  Tissue distribution, Liver: 0.54 ± 0.13 % IA/g
  Tissue distribution, Lung: 0.27 ± 0.04 % IA/g
  Tissue distribution, Muscle: < 0.10 % IA/g
  Tissue distribution, PC-3 PIP tumor: 78 ± 14 % IA/g
  Tissue distribution, PC-3 flu tumor: 0.31 ± 0.05 % IA/g
  Tissue distribution, Salivary glands: 0.21 ± 0.02 % IA/g
  Tissue distribution, Spleen: 0.42 ± 0.09 % IA/g
  Tissue distribution, Stomach: 0.11 ± 0.02 % IA/g
  Tumor-to-blood ratio: 341 ± 48
  Tumor-to-kidney ratio: 14 ± 2
  Tumor-to-liver ratio: 149 ± 34
[3]
  Tissue distribution, Blood: 0.13 ± 0.03 % IA/g
  Tissue distribution, Bone: < 0.10 % IA/g
  Tissue distribution, Heart: < 0.10 % IA/g
  Tissue distribution, Intestines: < 0.10 % IA/g
  Tissue distribution, Kidneys: 2.3 ± 0.4 % IA/g
  Tissue distribution, Liver: 0.28 ± 0.03 % IA/g
  Tissue distribution, Lung: 0.18 ± 0.04 % IA/g
  Tissue distribution, Muscle: < 0.10 % IA/g
  Tissue distribution, PC-3 PIP tumor: 58 ± 9 % IA/g
  Tissue distribution, PC-3 flu tumor: 0.17 ± 0.01 % IA/g
  Tissue distribution, Salivary glands: 0.11 ± 0.02 % IA/g
  Tissue distribution, Spleen: 0.25 ± 0.05 % IA/g
  Tissue distribution, Stomach: 0.12 ± 0.08 % IA/g
  Tumor-to-blood ratio: 445 ± 51
  Tumor-to-kidney ratio: 26 ± 2
  Tumor-to-liver ratio: 205 ± 10
